Data set [1] can be described thus: Solubility in toluene at 60° C. Format: physicochemical. Here is the method: The solubility of Cn-DNTTs (Cn=a linear alkyl chain) are very low in organic solvents (up to ˜80 mg/L in toluene at 60° C.) (see: Adv. Mater. 2011, 23, 1222-1225).

Where only a bound is given, the exact number is not on record here.

By melting point is commonly meant the temperature of the solid-liquid transition. For the molecule `CCCC(C)c1ccc2cc3c(cc2c1)sc1c2cc4ccc(C(C)CCC)cc4cc2sc31` (stereo not shown) [2,9-1MB-DNTT, 2,9-Bis(1-methylbutyl)dinaphtho [2,3-b:2′,3′-f]thieno[3,2-b]thiophene], the melting point was 280 to 281 °C.

`CCCCC(C)c1ccc2cc3c(cc2c1)sc1c2cc4ccc(C(C)CCCC)cc4cc2sc31` (stereo not shown) [2,9-1MP-DNTT, 2,9-Bis(1-methylpentyl)dinaphtho[2,3-b:2′,3′-f]thieno[3,2-b]thiophene] yielded a melting point of 262 to 263 °C. In addition, in data set [1] (in toluene at 60° C.), the solubility entry was “about 50 g/L”. Also, in data set [1] (toluene at 60° C., times higher), the “solubility relative to corresponding linear alkyl chain DNTT compounds” value is more than 500 times.

Source of the values: patent US9911927B2, “Compounds having semiconducting properties and related compositions and devices” (Flexterra, Inc., priority 2011, dated 2018).
